For series [1], the target named is T1, Protein cereblon/Dual specificity tyrosine-phosphorylation-regulated kinase 1B (Homo sapiens) (UniProt Q9Y463+Q96SW2). Put plainly: PROTAC activity at CRBN/DYRK1B in HEK293 cells assessed as induction of degradation of DYRK1B at 100 nM pretreated with MLN4924 followed by compound addition and incubated for 8 hrs. Format: cell-based.
Series [2] addresses T2, Protein cereblon/Dual specificity tyrosine-phosphorylation-regulated kinase 1A (Homo sapiens, UniProt Q13627+Q96SW2). Put plainly: PROTAC activity at CRBN/DYRK1A in HEK293 cells assessed as induction of degradation of DYRK1A at 100 nM pretreated with leucettine-41 followed by compound addition and incubated for 8 hrs. It is filed as cell-based.
Series [3] concerns the target T2, Protein cereblon/Dual specificity tyrosine-phosphorylation-regulated kinase 1A. Put plainly: PROTAC activity at CRBN/DYRK1A in Flp-In-T-REx-293 cells overexpressing GFP-DYRK1A assessed as half life at 1 uM measured upto 6 hrs by fluorescence based phase contrast microscopy analysis. It is filed as cell-based.
Series [4] has as its target T1, Protein cereblon/Dual specificity tyrosine-phosphorylation-regulated kinase 1B (Homo sapiens). Put plainly: PROTAC activity at CRBN/DYRK1B in HEK293 cells assessed as induction of degradation of DYRK1B at 100 nM measured within 8 hrs by Western blot analysis. Format: cell-based.
Series [5] shares this target. The experiment in a line: PROTAC activity at CRBN/DYRK1B in HEK293 cells assessed as induction of degradation of DYRK1B at 100 nM pretreated with lenalidomide followed by compound addition and incubated for 8 hrs. It is filed as cell-based.
Series [6] is described as follows: Clearance in mouse at 1 mg/kg, iv administered as single dose. It is filed as ADME, organism-based. Conditions: in vivo.
Series [7] in a line: Half life in mouse plasma. Format: ADME, cell-free.
The target in series [8] is T1, Protein cereblon/Dual specificity tyrosine-phosphorylation-regulated kinase 1B (Homo sapiens). Put plainly: PROTAC activity at CRBN/HibiT-tagged DYRK1B in Flp-In-T-REx-293 cells assessed as induction of degradation of DYRK1B by measuring maximum efficacy at 1 uM measured after 24 hrs by NanoBiT luciferase assay relative to control. It is filed as cell-based.

The structures appear in SMILES notation. Activity calls are given as the source filed them. No cut-off for these calls is given here.

T1 sequence (Q96SW2 whole entry, looked up): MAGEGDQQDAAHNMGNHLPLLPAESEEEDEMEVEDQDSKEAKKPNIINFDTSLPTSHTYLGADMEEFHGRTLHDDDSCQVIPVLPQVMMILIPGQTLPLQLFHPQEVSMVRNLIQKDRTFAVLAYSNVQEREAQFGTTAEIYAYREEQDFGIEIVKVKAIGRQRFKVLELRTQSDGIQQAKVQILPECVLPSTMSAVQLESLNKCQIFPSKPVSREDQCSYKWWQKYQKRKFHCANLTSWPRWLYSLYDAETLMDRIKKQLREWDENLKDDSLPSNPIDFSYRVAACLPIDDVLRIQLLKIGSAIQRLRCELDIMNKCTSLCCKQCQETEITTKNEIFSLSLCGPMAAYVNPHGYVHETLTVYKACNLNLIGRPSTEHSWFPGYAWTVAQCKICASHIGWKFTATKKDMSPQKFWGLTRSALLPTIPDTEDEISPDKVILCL
T1 sequence (Q9Y463 whole entry, looked up): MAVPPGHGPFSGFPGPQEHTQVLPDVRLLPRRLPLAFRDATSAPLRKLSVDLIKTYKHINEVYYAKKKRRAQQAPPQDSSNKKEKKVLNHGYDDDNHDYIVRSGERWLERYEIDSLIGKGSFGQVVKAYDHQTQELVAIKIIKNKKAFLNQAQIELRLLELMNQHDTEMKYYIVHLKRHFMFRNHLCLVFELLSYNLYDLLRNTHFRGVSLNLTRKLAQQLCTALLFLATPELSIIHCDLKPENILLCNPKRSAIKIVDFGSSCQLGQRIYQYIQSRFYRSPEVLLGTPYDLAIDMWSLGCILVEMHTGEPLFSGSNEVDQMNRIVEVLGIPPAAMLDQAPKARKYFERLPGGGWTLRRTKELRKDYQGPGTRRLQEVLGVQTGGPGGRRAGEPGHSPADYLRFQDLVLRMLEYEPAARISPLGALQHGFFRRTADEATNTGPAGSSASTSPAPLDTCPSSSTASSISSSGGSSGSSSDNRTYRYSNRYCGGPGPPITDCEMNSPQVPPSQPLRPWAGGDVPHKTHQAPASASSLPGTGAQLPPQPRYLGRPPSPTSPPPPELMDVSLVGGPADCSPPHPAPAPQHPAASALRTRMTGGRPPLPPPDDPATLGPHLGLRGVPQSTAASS
T2 sequence (Q96SW2 whole entry, looked up, other chains not shown): as the sequence (Q96SW2 whole entry, looked up) above

On to `Cc1nc2ccc(-c3ccnc(N)c3)nc2n1-c1ccc(N2CCN(CC#Cc3ccc(N4CCC(C(=O)N5CCC(n6cc(CNc7cccc8c7C(=O)N(C7CCC(=O)NC7=O)C8=O)cn6)CC5)CC4)nc3)CC2)c(F)c1` (stereo not drawn), for which the outcome in series [1], in series [2] and in series [5] was inactive. The T1/2 in series [3] is 0.95 h. In series [4], the result was Active. This compound registered a clearance in series [6] of 7.1 mL/min/kg. In addition, the half-life in series [7] is 6.97 h. Moreover, the Emax in series [8] worked out at 66%.

The values above are taken from ChEMBL document CHEMBL6120970, “Discovery and Functional Characterization of a Potent, Selective, and Metabolically Stable PROTAC of the Protein Kinases DYRK1A and DYRK1B” (J Med Chem, 2024).
